From patent US8754259B2, “Synthesis of cyclohexane derivatives useful as sensates in consumer products” (The Proctor & Gamble Company, priority 2008, dated 2014)

Assays:
[1] = concentration where the cooling effect could be clearly recognized; cited from earlier work
[2] = Sensory studies of coolant activity (G-180 and neoisomer vs menthol); assay type: in vivo, human; conditions: for burning sensation: sensory evaluations by panelists
Method: The coolant properties of the materials prepared according to the present methods are evaluated using sensory studies. […] By contrast, both the G-180 and neoisomer materials provided a sensation that lasted longer than about 15 minutes. The cooling potency of the neoisomer is particularly unexpected, since stereochemistry is a major factor influencing coolant activity and potency for menthol and menthol derivatives as reported in previous studies. [See for example, R. Emberger and R. Hopp (1987), Specialty Chemicals, 7(3), 193-201; R. Eccles (1990), Chemical Senses, 2, 275-291; S. Rovner (2007), Chemical & Engineering News, 85(39), 95-98]. […] The effect on activity of these isomers is far more significant than is observed with menthol.
Sensory evaluation studies of coolant activity may be conducted using a methodology patterned after the techniques described in M. C. Meilgaard, et al., Sensory Evaluation Techniques, 4th Ed. (2007). A panel of trained sensory experts evaluates cooling sensation experienced after using a product with coolant, for example by brushing with a dentifrice or rinsing with an aqueous rinse. In one protocol, panelists brush teeth with 1.5 grams of a test dentifrice (containing coolant) or control (no coolant) and then expectorate. After brush expectoration, panelists evaluate cooling intensity, assigning a number between 0 (no cooling) to 60 (intense cooling). In a rinse protocol, panelists rinse mouth with 15 ml. of an aqueous rinse and expectorate. After rinse expectoration, panelists evaluate cooling intensity according to the same 0 to 60 scale. Evaluations are conducted various time points, for example, at 5, 15, 30, 45, 60 minute, etc. At each evaluation, panelists are instructed to breathe in through pursed lips and evaluate overall cooling sensation. In this test, a numerical score of 7.5 indicates meaningful or definite cooling.

[3] = Cooling rating of test dentifrices relative to control dentifrice, panelists n=9; assay type: in vivo, human; conditions: for Cooling Rating Relative to Control: control = 60 on 1-90 scale; for cooling power compared to l-menthyl lactate: in words, dentifrice panel test, 60 minute period
Method: The neo-coolants synthesized according to the routes outlined herein were tested to rate their cooling power compared with the corresponding l-isomers (commercially available samples) using the following protocol. Control and test coolants were formulated into a dentifrice at various levels according to the following formula.
Panelists (n=9) were instructed to brush for 30 seconds with a control dentifrice (containing a mixture of coolants 1500 ppm l-WS-3, 3000 ppm Menthol, 3000 ppm MGA and 1000 ppm WS-23), expectorate, and assign the control dentifrice a cooling rating of 60 on a 1-90 scale. The panelists were then given the test dentifrices in random order and instructed to brush and rate each sample relative to the control over a 60-minute period. Cooling ratings relative to control are summarized below.

[4] = 0 min, 500 ppm coolant in dentifrice
[5] = 15 min, 500 ppm coolant in dentifrice
[6] = 30 min, 500 ppm coolant in dentifrice
[7] = 45 min, 500 ppm coolant in dentifrice
[8] = 60 min, 500 ppm coolant in dentifrice
[9] = 0 min, 1500 ppm coolant in dentifrice
[10] = 15 min, 1500 ppm coolant in dentifrice
[11] = 30 min, 1500 ppm coolant in dentifrice
[12] = 45 min, 1500 ppm coolant in dentifrice
[13] = 60 min, 1500 ppm coolant in dentifrice

Compound: CC(C)[C@@H]1CC[C@@H](C)C[C@@H]1O [d-neomenthol]
- cooling threshold [1]: about 25,000 ppb

Compound: CC(C)[C@@H]1CC[C@@H](C)C[C@@H]1C(=O)Nc1ccc(CC#N)cc1 [Neo-G-180, N-[4-(cyanomethyl)phenyl]-(1S,2S,5R)-2-isopropyl-5-methylcyclohexanecarboxamide]
- melting point: 167 to 169 °C
- cooling properties ([2]; in vivo): excellent cooling properties
- burning sensation [2]: significantly less of the “burning” sensation

Compound: CC(C)[C@@H]1CC[C@@H](C)C[C@H]1OC(=O)[C@H](C)O [l-Menthyl lactate (2S), reference compound]
- Cooling Rating Relative to Control [3, 4]: 50.0
- Cooling Rating Relative to Control [3, 5]: 38.0
- Cooling Rating Relative to Control [3, 6]: 26.5
- Cooling Rating Relative to Control [3, 7]: 18.5
- Cooling Rating Relative to Control [3, 8]: 13.5

Compound: CC(C)[C@@H]1CC[C@@H](C)C[C@H]1C(=O)Nc1ccc(CC#N)cc1 [G-180, N-[4-(cyanomethyl)phenyl]-(1R,2S,5R)-2-isopropyl-5-methylcyclohexanecarboxamide, reference compound]
- burning sensation [2]: “burning” sensation especially when used at fairly high levels

Compound: CC1CCC(C(C)C)C(OC(=O)C(C)O)C1 [Neo-Menthyl lactate (2S)]
- Cooling Rating Relative to Control [3, 4]: 62.2
- Cooling Rating Relative to Control [3, 5]: 43.9
- Cooling Rating Relative to Control [3, 6]: 33.9
- Cooling Rating Relative to Control [3, 7]: 27.5
- Cooling Rating Relative to Control [3, 8]: 16.7
- cooling power compared to l-menthyl lactate [3]: very strong initial cooling as well as over the 60 minute time period

Compound: CC(=O)O[C@@H](C)C(=O)O[C@H]1C[C@H](C)CC[C@H]1C(C)C [Neo-Menthyl lactate acetate (2S), (1S,2S,5R)-2-isopropyl-5-methylcyclohexyl-2(S)-acetoxypropanoate]
- Cooling Rating Relative to Control ([3]; 0 min, 335 ppm coolant in dentifrice): 64.4
- Cooling Rating Relative to Control ([3]; 15 min, 335 ppm coolant in dentifrice): 46.3
- Cooling Rating Relative to Control ([3]; 30 min, 335 ppm coolant in dentifrice): 33.1
- Cooling Rating Relative to Control ([3]; 45 min, 335 ppm coolant in dentifrice): 26.3
- Cooling Rating Relative to Control ([3]; 60 min, 335 ppm coolant in dentifrice): 21.3
- cooling power compared to l-menthyl lactate [3]: very strong initial cooling as well as over the 60 minute time period

Compound: CCNC(=O)C1CC(C)CCC1C(C)C (stereo not drawn) [l-WS-3, N-ethyl-ρ-menthan-3-carboxamide, reference compound]
- Cooling Rating Relative to Control [3, 9]: 53.5
- Cooling Rating Relative to Control [3, 10]: 36.5
- Cooling Rating Relative to Control [3, 11]: 27.0
- Cooling Rating Relative to Control [3, 12]: 20.5
- Cooling Rating Relative to Control [3, 13]: 15.5

Compound: CCNC(=O)[C@H]1C[C@H](C)CC[C@H]1C(C)C [Neo-WS-3]
- Cooling Rating Relative to Control [3, 9]: 43.3
- Cooling Rating Relative to Control [3, 10]: 33.9
- Cooling Rating Relative to Control [3, 11]: 23.3
- Cooling Rating Relative to Control [3, 12]: 16.7
- Cooling Rating Relative to Control [3, 13]: 13.3

Compound: CCOC(=O)CNC(=O)[C@H]1C[C@H](C)CC[C@H]1C(C)C [NeoWS-5]
- Cooling Rating Relative to Control [3, 9]: 61.9
- Cooling Rating Relative to Control [3, 10]: 39.3
- Cooling Rating Relative to Control [3, 11]: 29.3
- Cooling Rating Relative to Control [3, 12]: 21.4
- Cooling Rating Relative to Control [3, 13]: 15.7

Compound: CCOC(=O)CNC(=O)C1CC(C)CCC1C(C)C (stereo not drawn) [l-WS-5, N-ethoxycarbonylmethyl-ρ-menthan-3-carboxamide, reference compound]
- Cooling Rating Relative to Control [3, 9]: 53.9
- Cooling Rating Relative to Control [3, 10]: 40.0
- Cooling Rating Relative to Control [3, 11]: 26.7
- Cooling Rating Relative to Control [3, 12]: 17.8
- Cooling Rating Relative to Control [3, 13]: 13.3

Compound: Neo-Menthyl lactate [Neo-Menthyl lactate (~2:1 S:R)]
- Cooling Rating Relative to Control ([3]; 0 min, 1950 ppm coolant in dentifrice): 50.6
- Cooling Rating Relative to Control ([3]; 15 min, 1950 ppm coolant in dentifrice): 42.8
- Cooling Rating Relative to Control ([3]; 30 min, 1950 ppm coolant in dentifrice): 30.6
- Cooling Rating Relative to Control ([3]; 45 min, 1950 ppm coolant in dentifrice): 22.2
- Cooling Rating Relative to Control ([3]; 60 min, 1950 ppm coolant in dentifrice): 16.7

Compound: CC(C)[C@H]1CC[C@H](C)C[C@H]1O [l-neomenthol]
- cooling threshold [1]: about 3,000 ppb

Compound: CC(=O)C(=O)OC1CC(C)CCC1C(C)C (stereo not shown) [Neo-Menthyl pyruvate]
- Cooling Rating Relative to Control ([3]; 0 min, 1000 ppm coolant in dentifrice): 57.8
- Cooling Rating Relative to Control ([3]; 15 min, 1000 ppm coolant in dentifrice): 45.0
- Cooling Rating Relative to Control ([3]; 30 min, 1000 ppm coolant in dentifrice): 30.6
- Cooling Rating Relative to Control ([3]; 45 min, 1000 ppm coolant in dentifrice): 21.1
- Cooling Rating Relative to Control ([3]; 60 min, 1000 ppm coolant in dentifrice): 16.1

Compound: CC(C)[C@@H]1CC[C@@H](C)C[C@H]1O [L-menthol, l-menthol, reference compound]
- course of cooling sensation after use ([2]; sensory studies): drops sharply within a few minutes after use
- cooling threshold [1]: about 800 ppb
